Bounds are passed on as bounds.

One may read the IC50 as the concentration at which inhibition is half-maximal.

The test system of one assay is phosphate uptake by rabbit intestinal Brush Border Membrane Vesicles (BBMV). The experiment in a line: 33PO4 uptake in rabbit intestinal BBMV (HTS), phosphate transporter inhibition in vitro. The assay is classed as biochemical. The note with it: Table 12, 100 μM compound. Summed up:
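BBMV from duodenal mucosa of male New Zealand White rabbits, diluted to about 0.5-2.0 mg/mL protein. Uptake buffers carried 33PO4 at 200,000 CPM/19 μL. Controls: Na uptake buffer (max), plus 100 μM KH2PO4 pH 7.4 (mid), K uptake buffer (min).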
Turning to `Cc1cccc(CS(=O)(=O)c2ccc(Cl)cc2)c1F` [Compound 282], the “% Inhib. at 100 μM” value came out at 53%.
Regarding `O=S(=O)(Cc1c(Cl)cccc1Cl)c1cc(C(F)(F)F)cc(C(F)(F)F)c1` [Compound 283], the “% Inhib. at 100 μM” value worked out at 51%.
The same measure, in the same setting: the figure for `Cc1cc(S(=O)(=O)Cc2ccc(Cl)c(Cl)c2)c(Cl)cc1Cl` [Compound 284] is 51%.
`O=[N+]([O-])c1ccc(CS(=O)(=O)c2ccc(F)cc2F)c(Cl)c1` [Compound 285]: the “% Inhib. at 100 μM” value amounted to 44%.
Still for that read-out and setting: in the case of `O=S(=O)(Cc1c(F)cccc1Cl)c1ccc(Cl)cc1` [Compound 286] it was 39%.
The same measure, in the same setting: in the case of `O=S(=O)(Cc1ccccc1)c1ccccc1` [Compound 287] it was 34%; in that of `O=S(=O)(Cc1ccc(Br)cc1F)c1ccc(Cl)cc1` [Compound 288], 31%; in that of `O=S(=O)(Cc1ccc(C(F)(F)F)cc1)c1ccc(Cl)cc1` [Compound 291], 0%.

The assay is the same for the next values; noted with them: Table 13, phosphate uptake, read-out: IC50.
With `O=S(=O)(O)c1cc(/N=N/c2ccc(O)cc2)ccc1/C=C/c1ccc(/N=N/c2ccc(O)cc2)cc1S(=O)(=O)O` [Compound 292], the IC50 was less than 50 µM.
Still for that read-out and setting: in the case of `O=S(=O)(O)c1cc(NS(=O)(=O)c2ccc(-c3ccccc3)cc2)ccc1/C=C/c1ccc(NS(=O)(=O)c2ccc(-c3ccccc3)cc2)cc1S(=O)(=O)O` [Compound 293] it was 51 to 100 µM; in that of `O=[N+]([O-])c1ccc(S(=O)(=O)Nc2ccc(/C=C/c3ccc(NS(=O)(=O)c4ccc([N+](=O)[O-])cc4)cc3S(=O)(=O)O)c(S(=O)(=O)O)c2)cc1` [Compound 294], 101 to 500 µM.
On the same count and under the same terms, in the case of `O=S(=O)(O)c1cc(NS(=O)(=O)c2cccc(C(F)(F)F)c2)ccc1/C=C/c1ccc(NS(=O)(=O)c2cccc(C(F)(F)F)c2)cc1S(=O)(=O)O` [Compound 296] it was 101 to 500 µM; in that of `O=[N+]([O-])c1cccc(S(=O)(=O)Nc2ccc(/C=C/c3ccc(NS(=O)(=O)c4cccc([N+](=O)[O-])c4)cc3S(=O)(=O)O)c(S(=O)(=O)O)c2)c1` [Compound 297], 101 to 500 µM.
Same read-out and setting: the figure for `O=S(=O)(O)c1cc(NS(=O)(=O)c2ccc(-c3ccccc3)cc2)ccc1/C=C/c1ccc(NS(=O)(=O)c2ccc(-c3ccccc3)cc2)cc1S(=O)(=O)O` [Compound 298] is 501 to 1000 µM.
Regarding `O=S(=O)(O)c1cc(NS(=O)(=O)c2cccc3ccccc23)ccc1/C=C/c1ccc(NS(=O)(=O)c2cccc3ccccc23)cc1S(=O)(=O)O` [Compound 299], the IC50 was in the range of 501 to 1000 µM.
Regarding `O=C(Nc1ccc(/C=C/c2ccc(NC(=O)c3ccccc3)cc2S(=O)(=O)O)c(S(=O)(=O)O)c1)c1ccccc1` [Compound 300], the IC50 was 501 to 1000 µM.
Same read-out and setting: the figure for `O=S(=O)(O)c1cc(NS(=O)(=O)c2cccc(Cl)c2)ccc1/C=C/c1ccc(NS(=O)(=O)c2cccc(Cl)c2)cc1S(=O)(=O)O` [Compound 301] is 501 to 1000 µM; for `O=S(=O)(O)c1cc(Nc2nc(Nc3ccccc3)nc(N(CCO)CCO)n2)ccc1/C=C/c1ccc(Nc2nc(Nc3ccccc3)nc(N(CCO)CCO)n2)cc1S(=O)(=O)O` [Compound 302] it is 501 to 1000 µM; for `O=[N+]([O-])c1ccc(S(=O)(=O)Nc2ccc(/C=C/c3ccc(NS(=O)(=O)c4ccc([N+](=O)[O-])cc4)cc3S(=O)(=O)O)c(S(=O)(=O)O)c2)cc1` [Compound 303] it is 501 to 1000 µM.
The same measure, in the same setting: the figure for `O=[N+]([O-])c1ccc(/C=C/c2ccc([N+](=O)[O-])cc2S(=O)(=O)O)c(S(=O)(=O)O)c1` [Compound 305] is 1000 to 1500 µM; for `Oc1ccc(/C=C/c2ccc(O)cc2)cc1` [Compound 306] it is more than 1500 µM.
`O=S(=O)(O)c1cc(N=C=S)ccc1/C=C/c1ccc(N=C=S)cc1S(=O)(=O)O` [Compound 307]: the IC50 was more than 1500 µM.
Take `Nc1ccc(/C=C/c2ccc(N)cc2)cc1` [Compound 308]: the IC50 is more than 1500 µM.
The same measure, in the same setting: the figure for `Cc1ccc(S(=O)(=O)Nc2ccc(/C=C/c3ccc(NS(=O)(=O)c4ccc(C)c([N+](=O)[O-])c4)cc3S(=O)(=O)O)c(S(=O)(=O)O)c2)cc1[N+](=O)[O-]` [Compound 309] is more than 1500 µM; for `O=S(=O)(O)c1cc(NS(=O)(=O)c2cccc3cccnc23)ccc1/C=C/c1ccc(NS(=O)(=O)c2cccc3cccnc23)cc1S(=O)(=O)O` [Compound 311] it is more than 1500 µM.

The subject of another assay is sodium-dependent phosphate uptake into isolated rabbit intestinal rings. The experiment in a line: Ex vivo 33P uptake into isolated rabbit intestinal rings. In kind it is cell-based. More on the design: concentration or dose not given beside the values. The following applies: Table 14, 15-minute incubation. On the procedure:
For the ex vivo assay, ^33P uptake into isolated rabbit intestinal rings was measured using a modification of the method described by Crane and Mandelstam [Robert K. Crane and Paul Mandelstam “The active transport of sugars by various preparations of hamster intestine” Biochim. Biophys. Acta 45: 460-476, 1960; the contents of which are incorporated herein by reference]. Male New Zealand rabbits 2-3 kg in weight were aeuthinized by an i.v. injection of Fatal Pluse®. A midline laparotomy was performed and the duodenum from the pyloric junction to the ligament of Trietz isolated and excised. Segments of bowel were everted, cut into 2-4 mm ring-like pieces and placed into a modified Hepes-Buffered Ringer's solution in which Na^+ had been iso-osmotically replaced with N-methyl-D-glucamine. To measure phosphate uptake, six rings were incubated in a 50 ml conical tube containing a 10 ml volume of Ringer's solution, with or without Na^+, bubbled with 100% O2 and maintained at 37° C. 0.5 uCi/ml ^33P was then incubated with the rings for a 15-minute period, the tissue harvested, rinsed, blotted dry and weighed. Tissues were then solublized by digesting them in a 5 ml volume of Solvable® tissue solubilizer overnight at 50° C. and ^33P levels determined by scintillation counting. Sodium-dependent uptake of ^33P was calculated by determining the difference in uptake between rings incubated in the presence and absence of Na^+ in the Hepes-Buffered Ringer's solution. Results are reported as the percentage inhibition of phosphate and glucose uptake, respectively.
Take `O=C(NCc1ccccc1OC(F)(F)F)c1cc(Br)ccc1NS(=O)(=O)c1ccc(Cl)cc1` [Example 72, 5-Bromo-2-(4-chloro-benzenesulfonylamino)-N-(2-trifluoromethoxy-benzyl)-benzamide]: the “% Phosphate Transport Inhibition” value worked out at 24%.
For `COc1ccccc1CNC(=O)c1cc(Br)ccc1NS(=O)(=O)c1ccc(C(F)(F)F)cc1[N+](=O)[O-]` [Example 80, 5-Bromo-N-(2-methoxy-benzyl)-2-(4-trifluoromethyl-2-nitro-benzenesulfonylamino)-benzamide], the “% Phosphate Transport Inhibition” value is given as 43%.
Same read-out and setting: in the case of `O=C(Nc1ccc(Br)cc1)c1cccc(C(F)(F)F)c1` [Example 81, N-(4-Bromo-phenyl)-3-trifluoromethyl-benzamide] it was 22%.

Another assay concerns glucose uptake into isolated rabbit intestinal rings. The experiment in a line: Ex vivo glucose uptake into isolated rabbit intestinal rings. Details: concentration or dose not given beside the values. The note with it: Table 14. In kind it is cell-based. On the procedure: For the ex vivo assay, ^33P uptake into isolated rabbit intestinal rings was measured using a modification of the method described by Crane and Mandelstam [Robert K. Crane and Paul Mandelstam “The active transport of sugars by various preparations of hamster intestine” Biochim. Biophys. Acta 45: 460-476, 1960; the contents of which are incorporated herein by reference]. Male New Zealand rabbits 2-3 kg in weight were aeuthinized by an i.v. injection of Fatal Pluse®. A midline laparotomy was performed and the duodenum from the pyloric junction to the ligament of Trietz isolated and excised. Segments of bowel were everted, cut into 2-4 mm ring-like pieces and placed into a modified Hepes-Buffered Ringer's solution in which Na^+ had been iso-osmotically replaced with N-methyl-D-glucamine. […] […] Tissues were then solublized by digesting them in a 5 ml volume of Solvable® tissue solubilizer overnight at 50° C. and ^33P levels determined by scintillation counting. Sodium-dependent uptake of ^33P was calculated by determining the difference in uptake between rings incubated in the presence and absence of Na^+ in the Hepes-Buffered Ringer's solution. Results are reported as the percentage inhibition of phosphate and glucose uptake, respectively.
`O=C(NCc1ccccc1OC(F)(F)F)c1cc(Br)ccc1NS(=O)(=O)c1ccc(Cl)cc1` [Example 72, 5-Bromo-2-(4-chloro-benzenesulfonylamino)-N-(2-trifluoromethoxy-benzyl)-benzamide]: the “% Glucose Transport Inhibition” value stood at 6%.
The same measure, in the same setting: the figure for `COc1ccccc1CNC(=O)c1cc(Br)ccc1NS(=O)(=O)c1ccc(C(F)(F)F)cc1[N+](=O)[O-]` [Example 80, 5-Bromo-N-(2-methoxy-benzyl)-2-(4-trifluoromethyl-2-nitro-benzenesulfonylamino)-benzamide] is 39%; for `O=C(Nc1ccc(Br)cc1)c1cccc(C(F)(F)F)c1` [Example 81, N-(4-Bromo-phenyl)-3-trifluoromethyl-benzamide] it is 13%.
